How the values were obtained:
rat [1] = details: Prenatal developmental toxicity study, sprague dawley, Oral, Gavage/Intubation, dose end: 19 GD
rat [2] = details: Subchronic oral toxicity in rodents, other, Feed, dose end: 13 week, group: systemic
rat [3] = details: Combined chronic toxicity/carcinogenicity; sprague dawley; Oral; Feed; dose end: 24 month; group: systemic; systemic / in life observation / body weight / body weight gain
dog [4] = details: Subchronic oral toxicity in nonrodent, beagle, Feed, dose end: 26 week, group: systemic
mouse [5] = details: Carcinogenicity, cd1, Oral, Feed, dose end: 24 month, group: systemic
rat [6] = details: Subchronic oral toxicity in rodents, sprague dawley, Feed, dose end: 90 day
mouse [7] = details: Carcinogenicity; cd1; Oral; Feed; dose end: 18 month; group: systemic; systemic / in life observation / body weight / body weight + systemic / in life observation / mortality / mortality
dog [8] = details: Chronic toxicity, beagle, Oral, Feed, dose end: 52 week
rat [9] = details: Prenatal developmental toxicity study, other, Oral, Gavage/Intubation, dose end: 16 GD
rat [10] = details: Multigenerational reproductive toxicity study, sprague dawley, Oral, Feed, dose end: 2 generation
[11] = group: developmental, developmental / developmental malformation / bone / [other] + developmental / developmental malformation / bone / unossified
[12] = group: maternal, systemic / in life observation / body weight / body weight gain + systemic / in life observation / clinical signs / nasal discharge + …
[13] = systemic / organ weight / liver / absolute + systemic / organ weight / liver / relative to body weight
[14] = systemic / in life observation / body weight / body weight + systemic / in life observation / body weight / body weight gain
[15] = systemic / in life observation / body weight / body weight + systemic / in life observation / body weight / body weight gain + systemic / …
[16] = group: cholinesterase, cholinesterase / cholinesterase / cholinesterase / brain cholinesterase (che) + cholinesterase / cholinesterase / cholinesterase / …
[17] = group: systemic, systemic / in life observation / body weight / body weight + systemic / in life observation / clinical signs / abnormal gait + systemic / in…
[18] = group: cholinesterase, cholinesterase / cholinesterase / cholinesterase / brain cholinesterase (che)
[19] = group: cholinesterase, cholinesterase / cholinesterase / cholinesterase / brain cholinesterase (che) + cholinesterase / cholinesterase / cholinesterase / plasma …
[20] = group: systemic, systemic / in life observation / body weight / body weight + systemic / in life observation / body weight / body weight gain + systemic / in…
[21] = group: systemic, systemic / in life observation / body weight / body weight gain
[22] = group: developmental, systemic / in life observation / body weight / fetal weight
[23] = group: maternal, systemic / in life observation / body weight / body weight gain + systemic / in life observation / clinical signs / tremors + systemic / in …
[24] = group: offspring, systemic / in life observation / body weight / offspring (pup) weight
[25] = group: offspring, systemic / in life observation / body weight / offspring (pup) weight + developmental / offspring survival late / [other] / [other] + …
[26] = group: parental, systemic / in life observation / body weight / body weight + systemic / in life observation / body weight / body weight gain + systemic / in…

With `Nc1nc(N)nc(NC2CC2)n1` [Cyromazine] the LEL (rat [1]; [11]) was 600 mg/kg/day, the LOAEL (rat [1]; [11]) was 600 mg/kg/day and the NEL (rat [1]; [11]) was 300 mg/kg/day. The NOAEL (rat [1]; [11]) was 300 mg/kg/day, the LOAEL (rat [1]; group: maternal, systemic / in life observation / body weight / body weight gain + systemic / in life observation / clinical signs / nasal discharge) was 300 mg/kg/day and the LEL (rat [1]; [12]) was 300 mg/kg/day. The NEL (rat [1]; [12]) was 100 mg/kg/day, the NOAEL (rat [1]; [12]) was 100 mg/kg/day and the LEL (rat [2]; [13]) was 3 mg/kg/day. For the same molecule, the LOAEL (rat [2]; [13]) was 30 mg/kg/day, the NEL (rat [2]; [13]) was < 3 mg/kg/day and the NOAEL (rat [2]; systemic / organ weight / liver / absolute + systemic / organ weight / liver / relative to body weight + systemic / clinical chemistry / …) was 3 mg/kg/day. The LEL (rat [3]) was 15 mg/kg/day, the LOAEL (rat [3]) was 15 mg/kg/day and the NEL (rat [3]) was 1.5 mg/kg/day. For the same molecule, the NOAEL (rat [3]) was 1.5 mg/kg/day, the LOAEL (dog [4]; systemic / in life observation / body weight / body weight + systemic / hematology / hematocrit (hct) / hematocrit (hct) + systemic / …) was 75 mg/kg/day and the LEL (dog [4]; [14]) was 0.75 mg/kg/day. The NEL (dog [4]; [14]) was < 0.75 mg/kg/day, the NOAEL (dog [4]; [15]) was 7.5 mg/kg/day and the LOAEL (mouse [5]; systemic / in life observation / body weight / body weight) was 150 mg/kg/day. It also gave an LEL (mouse [5]; [14]) of 150 mg/kg/day, an NEL (mouse [5]; [15]) of 7.5 mg/kg/day and an NOAEL (mouse [5]; [15]) of 7.5 mg/kg/day.

`CNC(=O)ON=C(SC)C(=O)N(C)C` [Oxamyl] gave an LEL (rat [6]; [16]) of 14.9 mg/kg/day, an LOAEL (rat [6]; [16]) of 14.9 mg/kg/day and an NEL (rat [6]; [16]) of 2.1 mg/kg/day. It also gave an NOAEL (rat [6]; [16]) of 2.1 mg/kg/day, an LEL (rat [6]; [17]) of 14.9 mg/kg/day and an LOAEL (rat [6]; [17]) of 14.9 mg/kg/day. For the same molecule, the NEL (rat [6]; [17]) was 2.1 mg/kg/day, the NOAEL (rat [6]; [17]) was 2.1 mg/kg/day and the LEL (mouse [7]) was 7.5 mg/kg/day. The LOAEL (mouse [7]) was 7.5 mg/kg/day, the NEL (mouse [7]) was 3.75 mg/kg/day and the NOAEL (mouse [7]) was 3.75 mg/kg/day. For the same molecule, the LOAEL (dog [8]; [18]) was 1.56 mg/kg/day, the NOAEL (dog [8]; [18]) was < 1.56 mg/kg/day and the LEL (dog [8]; [19]) was 1.56 mg/kg/day. For the same molecule, the NEL (dog [8]; [19]) was < 1.56 mg/kg/day, the LOAEL (dog [8]; [20]) was 4.5 mg/kg/day and the NOAEL (dog [8]; [20]) was 1.46 mg/kg/day. The LEL (dog [8]; [21]) was 1.56 mg/kg/day, the NEL (dog [8]; [21]) was < 1.56 mg/kg/day and the LEL (rat [9]; [22]) was 0.5 mg/kg/day. The LOAEL (rat [9]; [22]) was 0.5 mg/kg/day, the NEL (rat [9]; [22]) was 0.2 mg/kg/day and the NOAEL (rat [9]; [22]) was 0.2 mg/kg/day. The LEL (rat [9]; [23]) was 0.8 mg/kg/day, the LOAEL (rat [9]; [23]) was 0.8 mg/kg/day and the NEL (rat [9]; [23]) was 0.5 mg/kg/day. It also gave an NOAEL (rat [9]; [23]) of 0.5 mg/kg/day, an LEL (rat [10]; [24]) of 5.2 mg/kg/day and an LOAEL (rat [10]; [24]) of 5.2 mg/kg/day. The NEL (rat [10]; [25]) was 1.7 mg/kg/day, the NOAEL (rat [10]; [25]) was 1.7 mg/kg/day and the LEL (rat [10]; [26]) was 5.2 mg/kg/day. For the same molecule, the LOAEL (rat [10]; [26]) was 5.2 mg/kg/day, the NEL (rat [10]; [26]) was 1.7 mg/kg/day and the NOAEL (rat [10]; [26]) was 1.7 mg/kg/day.

Reference: EPA's ToxRefDB 2
